Measurements: patent US20210198277A1, “AMINE-SUBSTITUTED ARYL OR HETEROARYL COMPOUNDS” (Epizyme, Inc., priority 2016, published 2021)

Legend:
[1] = biological target: T1, human EHMT2 913-1193 (Homo sapiens, UniProt Q96KQ7); test: EHMT2 enzyme assay on histone peptide substrate (EHMT2 PEP); assay type: biochemical; conditions: Table II; read-out: EHMT2 PEP (IC50 μM)
T1 construct: recombinant purified human EHMT2 913-1193, Viva; purchased Viva
T1 sequence (Q96KQ7 913-1193): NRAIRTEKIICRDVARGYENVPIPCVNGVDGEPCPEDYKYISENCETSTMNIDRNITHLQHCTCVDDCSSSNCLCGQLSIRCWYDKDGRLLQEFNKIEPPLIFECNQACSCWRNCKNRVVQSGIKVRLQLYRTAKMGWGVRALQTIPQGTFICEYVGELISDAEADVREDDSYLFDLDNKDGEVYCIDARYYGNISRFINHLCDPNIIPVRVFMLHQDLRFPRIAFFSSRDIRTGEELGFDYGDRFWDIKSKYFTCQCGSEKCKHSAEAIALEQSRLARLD
Experimental: Recombinant purified human EHMT2 913-1193 (55 μM) synthesized by Viva was used for all experiments. Biotinylated histone peptides were synthesized by Biopeptide and HPLC-purified to >95% purity. Streptavidin Flashplates and seals were purchased from PerkinElmer and 384 Well V-bottom Polypropylene Plates were from Greiner. ^3H-labeled S-adenosylmethionine (^3H-SAM) was obtained from American Radiolabeled Chemicals with a specific activity of 80 Ci/mmol. Unlabeled SAM and S-adenosylhomocysteine (SAH) were obtained from American Radiolabeled Chemicals and Sigma-Aldrich respectively. Flashplates were washed in a Biotek ELx-405 with 0.1% Tween. 384-well Flashplates and 96-well filter binding plates were read on a TopCount microplate reader (PerkinElmer). Compound serial dilutions were performed on a Freedom EVO (Tecan) and spotted into assay plates using a Thermo Scientific Matrix PlateMate (Thermo Scientific). Reagent cocktails were added by Multidrop Combi (Thermo Scientific).
General Procedure for EHMT2 Enzyme Assay on Histone Peptide Substrate.
10-point curves of test compounds were made on a Freedom EVO (Tecan) using serial 3-fold dilutions in DMSO, beginning at 2.5 mM (final top concentration of compound was 50 μM and the DMSO was 2%). A 1 μL aliquot of the inhibitor dilution series was spotted in a polypropylene 384-well V-bottom plate (Greiner) using a Thermo Scientific Matrix PlateMate (Thermo Scientific). […] Compounds were incubated for 30 minutes with 40 μL per well of 0.031 nM EHMT2 (recombinant purified human EHMT2 913-1193, Viva) in 1× assay buffer (20 mM Bicine [pH 7.5], 0.002% Tween 20, 0.005% Bovine Skin Gelatin and 1 mM TCEP). […] Reactions were incubated for 60 minutes at room temperature and quenched with 10 μL per well of 400 μM unlabeled SAM, then transferred to a 384-well streptavidin Flashplate (PerkinElmer) and washed in a Biotek ELx-405 well washer with 0.1% Tween after 60 minutes. 384-well Flashplates were read on a TopCount microplate reader (PerkinElmer).

[2] = biological target: T2, EHMT1 (Homo sapiens, UniProt Q9H9B1); test: EHMT1 enzyme assay on peptide substrate (EHMT1 PEP); assay type: biochemical; conditions: Table II; read-out: EHMT1 PEP (IC50 μM)
T2 sequence (Q9H9B1 1-1298): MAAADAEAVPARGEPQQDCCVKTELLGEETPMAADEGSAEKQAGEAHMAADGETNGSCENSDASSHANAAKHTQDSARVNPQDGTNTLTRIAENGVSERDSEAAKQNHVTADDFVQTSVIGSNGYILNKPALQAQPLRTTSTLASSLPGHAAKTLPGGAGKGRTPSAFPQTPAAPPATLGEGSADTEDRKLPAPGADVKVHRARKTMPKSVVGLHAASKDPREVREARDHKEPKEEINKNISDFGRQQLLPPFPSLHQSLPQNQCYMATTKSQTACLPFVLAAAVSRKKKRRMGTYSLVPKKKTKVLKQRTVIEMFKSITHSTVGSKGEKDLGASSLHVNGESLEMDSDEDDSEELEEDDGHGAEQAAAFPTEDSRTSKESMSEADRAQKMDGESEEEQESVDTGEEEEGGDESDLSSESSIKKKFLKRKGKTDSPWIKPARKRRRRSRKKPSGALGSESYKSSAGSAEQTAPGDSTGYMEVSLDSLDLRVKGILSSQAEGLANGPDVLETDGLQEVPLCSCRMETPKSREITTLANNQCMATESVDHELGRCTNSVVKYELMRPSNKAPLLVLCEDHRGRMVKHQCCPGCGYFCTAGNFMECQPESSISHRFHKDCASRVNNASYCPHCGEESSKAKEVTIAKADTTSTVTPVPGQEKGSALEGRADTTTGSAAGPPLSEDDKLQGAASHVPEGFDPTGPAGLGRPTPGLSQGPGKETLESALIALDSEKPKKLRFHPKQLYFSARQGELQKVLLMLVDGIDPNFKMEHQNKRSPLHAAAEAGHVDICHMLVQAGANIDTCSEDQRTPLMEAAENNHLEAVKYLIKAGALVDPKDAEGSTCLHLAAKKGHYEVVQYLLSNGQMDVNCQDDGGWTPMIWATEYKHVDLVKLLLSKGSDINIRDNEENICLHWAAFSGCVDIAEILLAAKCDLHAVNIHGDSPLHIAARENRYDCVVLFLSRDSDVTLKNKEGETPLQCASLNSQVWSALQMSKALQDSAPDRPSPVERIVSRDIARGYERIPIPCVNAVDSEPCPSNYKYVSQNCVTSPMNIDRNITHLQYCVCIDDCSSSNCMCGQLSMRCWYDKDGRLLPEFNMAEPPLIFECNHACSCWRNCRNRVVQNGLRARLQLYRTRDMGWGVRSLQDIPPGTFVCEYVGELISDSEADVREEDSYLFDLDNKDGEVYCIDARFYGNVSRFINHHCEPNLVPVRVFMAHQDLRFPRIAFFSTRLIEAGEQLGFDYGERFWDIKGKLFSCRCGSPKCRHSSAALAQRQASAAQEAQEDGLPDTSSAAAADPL

Compound	IC50 [1] [µM]	IC50 [2] [µM]
COc1ccc(Nc2ccnc(NCC3CCNCC3)c2)cc1OCCCN1CCCC1 [Compound 11, N^4-(4-methoxy-3-(3-(pyrrolidin-1-yl)propoxy)phenyl)-N^2-(piperidin-4-ylmethyl)pyridine-2,4-diamine]	< 0.1	< 0.1
CCCCNc1nccc(NC2CCCCC2)n1 [Compound 58]	> 10	> 10
CCCCNc1nccc(NCC2CCOCC2)n1 [Compound 59]	> 10	> 10
CCCCNc1nccc(NCC2CCOC2)n1 (stereo not drawn) [Compound 62]	> 10	> 10
CCCCNc1nccc(NC2CCOCC2)n1 [Compound 63]	> 10	> 10
CCCCNc1nccc(NC2CCN(C(C)=O)CC2)n1 [Compound 65]	> 10	> 10
CCCCNc1nccc(NCC2CCCO2)n1 (stereo not drawn) [Compound 67]	> 10	> 10
CCCCNc1nccc(NC2CCC(N)CC2)n1 (stereo not drawn) [Compound 70]	> 10	> 10
CCCCNc1nccc(NC2CCC(NC(C)=O)CC2)n1 (stereo not drawn) [Compound 71]	> 10	> 10
CCCCNc1ccnc(NCCCC)n1 [Compound 72]	> 10	> 10
CCCCNc1ccnc(NCCCN2CCCC2)n1 [Compound 73]	> 10	> 10
CCCCNc1nccc(NCCCN2CCCC2)n1 [Compound 74]	> 10	> 10
COCCNc1nccc(N)n1 [Compound 75]	> 10	> 10
CCCCNc1nccc(NCCCN(C)C)n1 [Compound 76]	> 10	> 10
CCCCNc1ccnc(NCCCN)n1 [Compound 77]	> 10	> 10
CCCCNc1ccnc(NCCCN(C)C)n1 [Compound 78]	> 10	> 10
CCCCNc1nccc(NCCCN)n1 [Compound 79]	> 10	1 to 10
CCCCNc1nccc(C(N)=O)n1 [Compound 80]	> 10	> 10
CCCCNc1nccc(C(=O)NC2CCOCC2)n1 [Compound 81]	> 10	> 10
CCCCNc1ncc(-c2ccccc2)c(N)n1 [Compound 82]	> 10	> 10
CCCCNc1ncc(C#N)c(NCC2CCNCC2)n1 [Compound 83]	> 10	> 10
CCCCNc1nc(NCC2CCNCC2)ncc1C#N [Compound 84]	> 10	> 10
CCCCNc1ncc(C)c(NCC2CCNCC2)n1 [Compound 91]	> 10	1 to 10
CCCCNc1nc(C#N)cc(NCC2CCNCC2)n1 [Compound 94]	1 to 10	1 to 10
COc1ccc(Nc2nccc(N3CCOCC3)n2)cc1OCCCN1CCCC1 [Compound 102]	> 10	> 10
COc1ccc(Nc2nccc(CNC3CCNCC3)n2)cc1OCCCN1CCCC1 [Compound 104]	> 10	> 10
COc1ccc(Nc2nccc(CNC3CCN(C(C)=O)CC3)n2)cc1OCCCN1CCCC1 [Compound 106]	1 to 10	0.1 to 1
COc1ccc(Nc2nccc(CNC3CCOCC3)n2)cc1OCCCN1CCCC1 [Compound 107]	> 10	> 10
COc1ccc(Nc2cc(NCC3CCNCC3)ncn2)cc1OCCCN1CCCC1 [Compound 108]	1 to 10	1 to 10
COc1cnc(Nc2cc(CNC3CCOCC3)ccn2)cc1OCCCN1CCCC1 [Compound 110]	1 to 10	1 to 10

Now from value to compound:

IC50 [1] [µM]	IC50 [2] [µM]	Compound
1 to 10	1 to 10	CCCCNc1nccc(NCC2CCNCC2)n1 [Compound 60]
> 10	> 10	CCCCNc1nccc(NCC2CCCCC2)n1 [Compound 61]
> 10	> 10	CCCCNc1nccc(NC2CCNCC2)n1 [Compound 64]
> 10	> 10	CCCCNc1nccc(NCC2CCN(C(C)=O)CC2)n1 [Compound 66]
> 10	> 10	CCCCNc1nccc(NCC2CCC(N)CC2)n1 (stereo not drawn) [Compound 68]
> 10	> 10	CCCCNc1nccc(NCC2CCC(NC(C)=O)CC2)n1 (stereo not drawn) [Compound 69]
> 10	> 10	CCCCNc1nc(NCC2CCNCC2)cc(C(N)=O)n1 [Compound 85]
1 to 10	1 to 10	CCCCNc1nc(C)cc(NCC2CCNCC2)n1 [Compound 86]
1 to 10	1 to 10	CCCCNc1ccnc(NCC2CCN(C)CC2)n1 [Compound 87]
> 10	> 10	CCCCNc1ncc(C(N)=O)c(NCC2CCNCC2)n1 [Compound 89]
> 10	> 10	O=C(NCCNc1ccnc(NCC2CCNCC2)n1)c1ccc2c(c1)OC(F)(F)O2 [Compound 92]
> 10	> 10	O=C(NCCNc1ccnc(NCC2CCNCC2)n1)c1cn(C2CC2)nn1 [Compound 93]
> 10	> 10	O=C(NCCNc1ccnc(NCC2CCNCC2)n1)c1ccc2[nH]c(=O)oc2c1 [Compound 95]
1 to 10	1 to 10	O=C1Cc2cc(C(=O)NCCNc3ccnc(NCC4CCNCC4)n3)ccc2N1 [Compound 96]
1 to 10	1 to 10	CN1CCC(CNc2nccc(NCCNC(=O)c3ccc4c(c3)CC(=O)N4)n2)CC1 [Compound 97]
> 10	> 10	CC(=O)N1CCC(CNc2nccc(NCCNC(=O)c3ccc4c(c3)CC(=O)N4)n2)CC1 [Compound 98]
> 10	> 10	O=C(NCCNc1ccnc(NCC2CCNCC2)n1)c1ccc(N2CCCC2)cc1 [Compound 99]
> 10	> 10	O=C(NCCNc1ccnc(NCC2CCNCC2)n1)c1cccc(N2CCCC2)c1 [Compound 100]
1 to 10	> 10	CN1CCC(CNc2nccc(NCCNC(=O)c3ccc4c(c3)CC(=O)N4)n2)CC1 [Compound 101]
1 to 10	> 10	O=C1Cc2cc(C(=O)NCCNc3nccc(NCC4CCNCC4)n3)ccc2N1 [Compound 105]
1 to 10	1 to 10	COc1ccc(Nc2nccc(NCC3CCNCC3)n2)cc1OCCCC1CCCC1 [Compound 109]
